Measured values as given in patent US20220218852A1, “NOVEL RADIOLABELLED CXCR4-TARGETING COMPOUNDS FOR DIAGNOSIS AND THERAPY” (PROVINCIAL HEALTH SERVICES AUTHORITY, priority 2019, published 2022).
Positions of bridges follow the written chain, without caps; N, C: chain ends. Non-standard residues stand in square brackets, D forms with d. Residues, ends and D or L forms follow the SMILES beside them. Groups on a side chain read outwards from the residue. *: point of attachment. DOTA = O=C(O)CN1CCN(CC(=O)O)CCN(CC(=O)*)CCN(CC(=O)O)CC1; 2Nal = N[C@@H](Cc1ccc2ccccc2c1)C(=O)O; Lys(iPr) = CC(C)NCCCC[C@H](N)C(=O)O

How the values were obtained:
Format in all cases: in vivo
[1] = Biodistribution in GRANTA519 tumor-bearing mice; details: male, NOD.Cg-Rag1^tm1MomII2rg^tm1Wjl/SzJ (NRG), mouse, iv, total radioactivity, GRANTA519
Experimental: (§1) For Daudi, Z138, GRANTA519 and Jeko1 xenografts, male NOD.Cg-Rag1^tm1MomII2rg^tm1Wjl/SzJ (NRG) mice were subcutaneously inoculated on the left flank with 5×10^6 cells (100 μL; 1:1 ratio of PBS/Matrigel) and tumors were grown to a size of 200-500 mm^3. For PC-3 xenografts, male NOD.Cg-Rag1^tm1MomII2rg^tm1Wjl/SzJ (NRG) mice were subcutaneously inoculated on the left flank with 5×10^6 PC-3 cells (100 μL; 1:1 ratio of PBS/Matrigel) and tumors were grown to a size of 200-400 mm^3.
(§2) The mice were euthanized via CO2 inhalation while anesthetized with isoflurane. Tissues were harvested, washed in PBS, blotted dry, weighed, and measured on a Hidex AMG Automatic Gamma Counter.

[2] = test system: GRANTA519 mantle cell lymphoma xenografts; test: Biodistribution in GRANTA519 tumor-bearing mice; details: GRANTA519
Experimental: as §1, §2

[3] = Biodistribution in Jeko1 tumor-bearing mice; details: male, NOD.Cg-Rag1^tm1MomII2rg^tm1Wjl/SzJ (NRG), mouse, iv, total radioactivity
Experimental: as §1, §2

[4] = adrenals, 1 h, read-out: Biodistribution Adrenals
[5] = adrenals, 1 h blocked (7.5 μg LY2510924 i.p.), read-out: Biodistribution Adrenals
[6] = bone, 1 h, read-out: Biodistribution Bone
[7] = bone, 1 h blocked (7.5 μg LY2510924 i.p.), read-out: Biodistribution Bone
[8] = brain, 1 h, read-out: Biodistribution Brain
[9] = brain, 1 h blocked (7.5 μg LY2510924 i.p.), read-out: Biodistribution Brain
[10] = fat, 1 h, read-out: Biodistribution Fat
[11] = 1 h blocked (7.5 μg LY2510924 i.p.)

CC(C)NCCCC[C@@H]1NC(=O)[C@H](Cc2ccc(O)cc2)NC(=O)[C@H](Cc2ccccc2)NC(=O)CC[C@H](C(=O)N[C@@H](CCCCNC(C)C)C(=O)N[C@@H](CCCCNC(=O)[C@H](CCC(=O)O)NC(=O)[C@H](CCC(=O)O)NC(=O)[C@H](CCC(=O)O)NC(=O)CN2CCN(CC(=O)O)CCN(CC(=O)O)CCN(CC(=O)O)CC2)C(N)=O)NC(=O)CNC(=O)[C@H](Cc2ccc3ccccc3c2)NC(=O)[C@@H](CCCNC(=N)N)NC1=O [[^68Ga]Ga-BL02, metal not drawn] (FY[Lys(iPr)][dR][2Nal]G[dE][Lys(iPr)]K([Glu-Glu-Glu-DOTA])-NH2; lactam N-7)
tissue uptake at 1 h [1, 4]: 3.48 %ID/g | tissue uptake at 1 h [1, 5]: 7.4 %ID/g | tissue uptake at 1 h [1, 6]: 0.16 %ID/g | tissue uptake at 1 h [1, 7]: 0.25 %ID/g | tissue uptake at 1 h [1, 8]: 0.01 %ID/g | tissue uptake at 1 h [1, 9]: 0.02 %ID/g | tissue uptake at 1 h [1, 10]: 0.05 %ID/g | tissue uptake at 1 h ([1]; fat, 1 h blocked (7.5 μg LY2510924 i.p.), read-out: Biodistribution Fat): 0.1 %ID/g | tissue uptake at 1 h ([1]; heart, 1 h, read-out: Biodistribution Heart): 0.49 %ID/g | tissue uptake at 1 h ([1]; heart, 1 h blocked (7.5 μg LY2510924 i.p.), read-out: Biodistribution Heart): 0.53 %ID/g | tissue uptake at 1 h ([1]; intestine, 1 h, read-out: Biodistribution Intestine): 0.22 %ID/g | tissue uptake at 1 h ([1]; intestine, 1 h blocked (7.5 μg LY2510924 i.p.), read-out: Biodistribution Intestine): 0.46 %ID/g | tissue uptake at 1 h ([1]; kidney, 1 h, read-out: Biodistribution Kidney): 0.62 %ID/g | tissue uptake at 1 h ([1]; kidney, 1 h blocked (7.5 μg LY2510924 i.p.), read-out: Biodistribution Kidney): 0.81 %ID/g | tissue uptake at 1 h ([1]; liver, 1 h, read-out: Biodistribution Liver): 0.09 %ID/g | tissue uptake at 1 h ([1]; liver, 1 h blocked (7.5 μg LY2510924 i.p.), read-out: Biodistribution Liver): 0.19 %ID/g | tissue uptake at 1 h ([1]; lung, 1 h, read-out: Biodistribution Lung): 0.12 %ID/g | tissue uptake at 1 h ([1]; lung, 1 h blocked (7.5 μg LY2510924 i.p.), read-out: Biodistribution Lung): 0.25 %ID/g | tissue uptake at 1 h ([1]; muscle, 1 h, read-out: Biodistribution Muscle): 0.07 %ID/g | tissue uptake at 1 h ([1]; muscle, 1 h blocked (7.5 μg LY2510924 i.p.), read-out: Biodistribution Muscle): 0.14 %ID/g | tissue uptake at 1 h ([1]; pancreas, 1 h, read-out: Biodistribution Pancreas): 0.2 %ID/g | tissue uptake at 1 h ([1]; pancreas, 1 h blocked (7.5 μg LY2510924 i.p.), read-out: Biodistribution Pancreas): 0.34 %ID/g | tissue uptake at 1 h ([1]; spleen, 1 h, read-out: Biodistribution Spleen): 0.49 %ID/g | tissue uptake at 1 h ([1]; spleen, 1 h blocked (7.5 μg LY2510924 i.p.), read-out: Biodistribution Spleen): 0.53 %ID/g | tissue uptake at 1 h ([1]; stomach, 1 h, read-out: Biodistribution Stomach): 0.05 %ID/g | tissue uptake at 1 h ([1]; stomach, 1 h blocked (7.5 μg LY2510924 i.p.), read-out: Biodistribution Stomach): 0.12 %ID/g | tissue uptake at 1 h ([1]; testes, 1 h, read-out: Biodistribution Testes): 0.16 %ID/g | tissue uptake at 1 h ([1]; testes, 1 h blocked (7.5 μg LY2510924 i.p.), read-out: Biodistribution Testes): 0.2 %ID/g | tissue uptake at 1 h ([1]; tumor (GRANTA519 xenograft), 1 h, read-out: Biodistribution GRANTA519 (tumor)): 5.5 %ID/g | tissue uptake at 1 h ([1]; tumor (GRANTA519 xenograft), 1 h blocked (7.5 μg LY2510924 i.p.), read-out: Biodistribution GRANTA519 (tumor)): 0.72 %ID/g | tissue uptake at 1 h ([1]; whole blood, 1 h, read-out: Biodistribution Blood): 0.41 %ID/g | tissue uptake at 1 h ([1]; whole blood, 1 h blocked (7.5 μg LY2510924 i.p.), read-out: Biodistribution Blood): 0.83 %ID/g | Ratio Tumor: Blood ([2]; 1 h): 13.83 | Ratio Tumor: Bone ([2]; 1 h): 45.39 | Ratio Tumor: Liver ([2]; 1 h): 11.28 | Ratio Tumor: Lung ([2]; 1 h): 9.12 | Ratio Tumor: Muscle ([2]; 1 h): 83.17 | Ratio Tumor: Spleen ([2]; 1 h): 15.86 | Ratio Tumor: Blood [2, 11]: 0.94 | Ratio Tumor: Bone [2, 11]: 4.27 | Ratio Tumor: Liver [2, 11]: 1.37 | Ratio Tumor: Lung [2, 11]: 0.96 | Ratio Tumor: Muscle [2, 11]: 5.36 | Ratio Tumor: Spleen [2, 11]: 1.78 | tissue uptake at 1 h ([3]; Jeko1 tumor, 1 h, read-out: Biodistribution Jeko1 (tumor)): 11.4 %ID/g | tissue uptake at 1 h ([3]; Jeko1 tumor, 1 h blocked (7.5 μg LY2510924 i.p.), read-out: Biodistribution Jeko1 (tumor)): 1.32 %ID/g | tissue uptake at 1 h [3, 4]: 0.23 %ID/g | tissue uptake at 1 h [3, 5]: 0.47 %ID/g | tissue uptake at 1 h [3, 6]: 0.47 %ID/g | tissue uptake at 1 h [3, 7]: 0.18 %ID/g | tissue uptake at 1 h [3, 8]: 0.02 %ID/g | tissue uptake at 1 h [3, 9]: 0.03 %ID/g | tissue uptake at 1 h [3, 10]: 0.05 %ID/g
